For one test, the system named is HCT116 cells. As to the kind of experiment: HCT116 (MSI) 7 day viability, CellTiter Glo. The settings on record: 7 days, read-out: HCT116 (MSI) Viability 7 Day Abs AC50. In kind it is cell-based. The procedure, abridged: (§1)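 HCT116 (50 cells/well) or HT29 (500 cells/well) exposed 7 days at 37° C, 5% CO2, to 10-point 3-fold compound dilutions. Viability measured by CellTiter Glo luminescence, background from cell-free wells; IC50 from four-parameter logistic fit, geometric mean of at least 2 replicates.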
In general terms: In ATP-based viability assays light output follows the ATP content of the culture.

The next test relates to HT29 cells. In words: HT29 (MSS) 7 day viability, CellTiter Glo. In kind it is cell-based. The conditions noted are these: 7 days, read-out: HT29 (MSS) Viability 7 Day CTGAbs AC50. In a few lines:
as §1

For test [1], the target named is Full length WRN protein (aa 2-1432) (Homo sapiens (Human), UniProt Q14191). In words: WRN ATPase ADP-Glo biochemical assay, Assay Format B (100 μM ATP). The settings on record: 0.25 nM WRN, 100 nM C6.18 ssDNA, 60 min preincubation. (In ADP-Glo the light output rises with the ADP produced.)
Full length WRN protein (aa 2-1432), sequence (Q14191 2-1432): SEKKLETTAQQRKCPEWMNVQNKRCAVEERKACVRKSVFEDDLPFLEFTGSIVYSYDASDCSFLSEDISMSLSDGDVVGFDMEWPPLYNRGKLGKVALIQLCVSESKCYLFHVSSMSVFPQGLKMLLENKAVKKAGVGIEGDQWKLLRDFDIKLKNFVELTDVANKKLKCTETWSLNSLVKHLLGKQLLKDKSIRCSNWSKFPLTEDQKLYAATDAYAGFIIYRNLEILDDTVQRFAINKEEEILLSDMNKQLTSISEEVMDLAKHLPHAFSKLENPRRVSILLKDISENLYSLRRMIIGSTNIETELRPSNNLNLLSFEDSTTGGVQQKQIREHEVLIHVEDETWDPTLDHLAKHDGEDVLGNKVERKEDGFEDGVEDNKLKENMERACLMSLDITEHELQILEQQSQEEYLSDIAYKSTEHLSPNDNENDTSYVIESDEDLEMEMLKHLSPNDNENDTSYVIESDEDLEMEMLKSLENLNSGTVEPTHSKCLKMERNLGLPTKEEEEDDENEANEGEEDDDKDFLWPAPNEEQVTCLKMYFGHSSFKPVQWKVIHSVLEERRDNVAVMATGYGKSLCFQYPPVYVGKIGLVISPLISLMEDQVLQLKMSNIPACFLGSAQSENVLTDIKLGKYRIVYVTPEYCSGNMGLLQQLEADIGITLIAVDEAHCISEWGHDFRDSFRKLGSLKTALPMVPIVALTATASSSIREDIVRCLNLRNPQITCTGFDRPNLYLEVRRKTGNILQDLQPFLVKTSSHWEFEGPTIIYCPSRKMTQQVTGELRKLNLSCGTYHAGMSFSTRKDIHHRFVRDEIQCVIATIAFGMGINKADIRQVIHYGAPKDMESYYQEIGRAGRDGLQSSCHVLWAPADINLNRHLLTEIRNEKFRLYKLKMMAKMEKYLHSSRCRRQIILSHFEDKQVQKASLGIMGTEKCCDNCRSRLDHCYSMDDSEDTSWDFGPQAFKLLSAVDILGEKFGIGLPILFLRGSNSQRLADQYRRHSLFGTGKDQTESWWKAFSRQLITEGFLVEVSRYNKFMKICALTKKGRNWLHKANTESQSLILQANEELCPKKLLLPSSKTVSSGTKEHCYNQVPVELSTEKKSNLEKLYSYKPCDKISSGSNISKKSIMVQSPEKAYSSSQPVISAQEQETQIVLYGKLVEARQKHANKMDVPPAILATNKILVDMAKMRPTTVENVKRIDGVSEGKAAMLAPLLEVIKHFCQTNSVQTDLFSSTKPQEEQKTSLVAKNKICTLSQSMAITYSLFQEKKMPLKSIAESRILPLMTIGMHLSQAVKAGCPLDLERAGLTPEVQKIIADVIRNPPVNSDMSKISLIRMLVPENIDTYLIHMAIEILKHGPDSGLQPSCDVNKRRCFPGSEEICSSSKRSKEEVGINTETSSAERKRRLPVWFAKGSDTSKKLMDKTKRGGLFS
Setting [2] is: read-out: ATPase ADPGlo AC50 (uM)- Assay Format B.

Like-named read-outs stand apart in the source and are kept apart here.

Consider `C=CC(=O)N1CCc2nn(-c3ccc(C4CC4)c(F)c3O)c3c2C(C1)N(C(=O)c1cnc(Br)c(F)c1N)CC3` (stereo not drawn) [Compound 229, 1-(5-(4-amino-6-bromo-5-fluoronicotinoyl)-2-(4-cyclopropyl-3-fluoro-2-hydroxyphenyl)-2,3,4,5,5a,6,8,9-octahydro-7H-1,2,5,7-tetraazabenzo[cd]azulen-7-yl)prop-2-en-1-one], for which the AC50 (commonly the midpoint of the concentration-response curve, whichever way the signal moves) in the test on HCT116 cells is 0.001 to 0.1 µM; with HT29 cells, above 3 µM; in test [1] (setting [2]), 0.015 to 0.055 µM.

Regarding `C=CC(=O)N1CC2c3c(nn(-c4ccc(C5CC5)cc4)c3CCN2C(=O)c2ccc(C(F)(F)F)cc2)C(n2ccccc2=O)C1` (stereo not drawn) [Compound 231, 1-(7-acryloyl-2-(4-cyclopropylphenyl)-5-(4-(trifluoromethyl)benzoyl)-3,4,5,5a,6,7,8,9-octahydro-2H-1,2,5,7-tetraazabenzo[cd]azulen-9-yl)pyridin-2(1H)-one], the AC50 in the test on HCT116 cells (Homo sapiens, HCT-116, 168 h) was 0.001 to 0.1 µM; in the test with HT29 cells (Homo sapiens, HT-29, 168 h) it was above 3 µM; in test [1] (setting [2]), 0.015 to 0.055 µM.

In the case of `C=CC(=O)N1CC(OC2CC2)c2nn(-c3ccc(C4CC4)cc3O)c3c2C(C1)N(C(=O)c1cnc(C(F)(F)F)cc1N)CC3` (stereo not drawn) [Compound 232, 1-(5-(4-amino-6-(trifluoromethyl)nicotinoyl)-9-cyclopropoxy-2-(4-cyclopropyl-2-hydroxyphenyl)-2,3,4,5,5a,6,8,9-octahydro-7H-1,2,5,7-tetraazabenzo[cd]azulen-7-yl)prop-2-en-1-one], the AC50 in the test on HCT116 cells (Homo sapiens, HCT-116, 168 h) is 0.001 to 0.1 µM; in the test with HT29 cells (Homo sapiens, HT-29, 168 h) it was above 3 µM; in test [1] (setting [2]) it was 0.005 to 0.015 µM.

Turning to `C=CC(=O)N1CC2c3c(nn(-c4ccc(C5CC5)cc4)c3CCN2C(=O)c2cnc(C(F)(F)F)cc2N)C2(C1)CN(c1nnc(C)s1)C2` (stereo not drawn) [Compound 233, 1-(5′-(4-amino-6-(trifluoromethyl)nicotinoyl)-2′-(4-cyclopropylphenyl)-1-(5-methyl-1,3,4-thiadiazol-2-yl)-2′,3′,4′,5′,5a′,6′-hexahydro-1′,2′,5′,7′-tetraazaspiro[azetidine-3,9′-benzo[cd]azulen]-1′(9a′),2a′-dien-7′(8′H)-yl)prop-2-en-1-one], the AC50 was 0.1 to 0.25 µM with HCT116 cells (Homo sapiens, HCT-116, 168 h); above 3 µM in the test with HT29 cells (Homo sapiens, HT-29, 168 h); above 0.055 µM in test [1] (setting [2]).

For the compound `C=CC(=O)N1CC(OCc2cnc3sccn23)c2nn(-c3ccc(C4CC4)cc3)c3c2C(C1)N(C(=O)c1ccc(C(F)(F)F)nc1)CC3` (stereo not drawn) [Compound 234, 1-(2-(4-cyclopropylphenyl)-9-(imidazo[2,1-b]thiazol-5-ylmethoxy)-5-(6-(trifluoromethyl)nicotinoyl)-2,3,4,5,5a,6,8,9-octahydro-7H-1,2,5,7-tetraazabenzo[cd]azulen-7-yl)prop-2-en-1-one], the AC50 in the test with HCT116 cells (Homo sapiens, HCT-116, 168 h) was 0.001 to 0.1 µM; with HT29 cells (Homo sapiens, HT-29, 168 h) it was above 3 µM; in test [1] (setting [2]), 0.015 to 0.055 µM.

As for `C=CC(=O)N1CC(OC2(COC)CC2)c2nn(-c3ccc(C4CC4)cc3)c3c2C(C1)N(C(=O)c1ccc(C(F)(F)F)nc1)CC3` (stereo not drawn) [Compound 235, 1-(2-(4-cyclopropylphenyl)-9-(1-(methoxymethyl)cyclopropoxy)-5-(6-(trifluoromethyl)nicotinoyl)-2,3,4,5,5a,6,8,9-octahydro-7H-1,2,5,7-tetraazabenzo[cd]azulen-7-yl)prop-2-en-1-one], the AC50 in the test on HCT116 cells (Homo sapiens, HCT-116, 168 h) was 0.1 to 0.25 µM; in the test with HT29 cells (Homo sapiens, HT-29, 168 h), above 3 µM; in test [1] (setting [2]), above 0.055 µM.

On to `C=CC(=O)N1CCc2nn(-c3ccc(C4CCC4)cc3)c3c2C(C1)N(C(=O)c1ccc2c(Cl)ncn2c1)CC3` (stereo not drawn) [Compound 236, 1-(5-(1-chloroimidazo[1,5-a]pyridine-6-carbonyl)-2-(4-cyclobutylphenyl)-2,3,4,5,5a,6,8,9-octahydro-7H-1,2,5,7-tetraazabenzo[cd]azulen-7-yl)prop-2-en-1-one], for which the AC50 is 0.001 to 0.1 µM with HCT116 cells (Homo sapiens, HCT-116, 168 h); above 3 µM in the test on HT29 cells (Homo sapiens, HT-29, 168 h); 0.005 to 0.015 µM in test [1] (setting [2]).

On to `C=CC(=O)N1CCc2nc(-c3ccc(C4CCC4)cc3)n3c2C(C1)N(C(=O)c1ccc(Br)c2[nH]c(C(F)F)nc12)CC3` (stereo not drawn) [Compound 237, 1-(5-(7-bromo-2-(difluoromethyl)-1H-benzo[d]imidazole-4-carbonyl)-2-(4-cyclobutylphenyl)-4,5,5a,6,8,9-hexahydro-1,2a,5,7-tetraazabenzo[cd]azulen-7(3H)-yl)prop-2-en-1-one], for which the AC50 in the test on HCT116 cells (Homo sapiens, HCT-116, 168 h) was 0.001 to 0.1 µM; in the test with HT29 cells (Homo sapiens, HT-29, 168 h), above 3 µM; in test [1] (setting [2]) it was 0.0015 to 0.005 µM.

On to `C=CC(=O)N1CCc2nn(-c3cc(F)c(C4CC4)cc3O)c3c2C(C1)N(C(=O)c1cnc(C(C)(F)F)c(F)c1N)CC3` (stereo not drawn) [Compound 253, 1-[7-[4-amino-6-(1,1-difluoroethyl)-5-fluoro-pyridine-3-carbonyl]-3-(4-cyclopropyl-5-fluoro-2-hydroxy-phenyl)-2,3,7,10-tetrazatricyclo[6.4.1.04,1 3]trideca-1,4(13)-dien-10-yl]prop-2-en-1-one], for which the AC50 in the test with HCT116 cells (Homo sapiens, HCT-116, 168 h) was 0.001 to 0.1 µM; in the test on HT29 cells (Homo sapiens, HT-29, 168 h) it was above 3 µM; in test [1] (setting [2]), 0.005 to 0.015 µM.

As to `C=CC(=O)N1CCc2nn(-c3cc(F)c(C4CC4)cc3O)c3c2C(C1)N(C(=O)c1cnc(OC(F)(F)F)c(F)c1N)CC3` (stereo not drawn) [Compound 254, 1-(5-(4-amino-5-fluoro-6-(trifluoromethoxy)nicotinoyl)-2-(4-cyclopropyl-5-fluoro-2-hydroxyphenyl)-2,3,4,5,5a,6,8,9-octahydro-7H-1,2,5,7-tetraazabenzo[cd]azulen-7-yl)prop-2-en-1-one], the AC50 with HCT116 cells (Homo sapiens, HCT-116, 168 h) was 0.001 to 0.1 µM; with HT29 cells (Homo sapiens, HT-29, 168 h), above 3 µM; in test [1] (ATPase ADPGlo AC50 (uM)- Assay Format B), 0.015 to 0.055 µM.

As for `C=CC(=O)N1CCc2nn(-c3ccc(C4CC4)cc3O)c3c2C(C1)N(C(=O)c1ccc(C(F)(F)F)c(F)c1N)CC3` (stereo not drawn) [Compound 259, 1-(5-(2-amino-3-fluoro-4-(trifluoromethyl)benzoyl)-2-(4-cyclopropyl-2-hydroxyphenyl)-2,3,4,5,5a,6,8,9-octahydro-7H-1,2,5,7-tetraazabenzo[cd]azulen-7-yl)prop-2-en-1-one], the AC50 in the test with HCT116 cells (Homo sapiens, HCT-116, 168 h) was 0.001 to 0.1 µM; in the test with HT29 cells (Homo sapiens, HT-29, 168 h), above 3 µM; in test [1] (setting [2]), 0.015 to 0.055 µM.

The record behind these values is patent US20250346600A1, “TRICYCLIC DERIVATIVES AND RELATED USES” (MOMA Therapeutics, Inc., priority 2023, published 2025).
